Literature values in patent US12179232B2 (priority 2020, dated 2024).

Tested on: coronaviruses
Conditions: 0.05-0.2% benzalkonium chloride or 0.02% chlorhexidine digluconate

Molecule | effectiveness of surface inactivation compared with ethanol, hydrogen peroxide, sodium hypochlorite
N=C(NCCCCCCNC(=N)NC(=N)Nc1ccc(Cl)cc1)NC(=N)Nc1ccc(Cl)cc1.O=C(O)[C@H](O)[C@@H](O)[C@H](O)[C@H](O)CO.O=C(O)[C@H](O)[C@@H](O)[C@H](O)[C@H](O)CO [chlorhexidine digluconate] | less effective
benzalkonium chloride | less effective
